Values of other authors in patent US10744110B2, “Methods of treating lung cancer” (Abraxis BioScience, LLC, priority 2013, dated 2020).

Test system: NSCLC
Conditions: single agent

Structure (SMILES): CCC1=C[C@@H]2CN(C1)Cc1c([nH]c3ccccc13)[C@@](C(=O)OC)(c1cc3c(cc1OC)N(C)[C@H]1[C@@](O)(C(=O)OC)[C@H](OC(C)=O)[C@]4(CC)C=CCN5CC[C@]31[C@@H]54)C2 [vinorelbine]
- response rate (RR): 29.4%
